Results on 20 compounds are retold here after US20260159512A1, “BCAT2 INHIBITORS” (AGIOS PHARMACEUTICALS, INC., priority 2021, published 2026).

Where only a bound is given, the exact number is not on record here.

In test [1] the target is T1, BCAT2 (Homo sapiens, UniProt O15382).
T1 sequence (O15382 28-392): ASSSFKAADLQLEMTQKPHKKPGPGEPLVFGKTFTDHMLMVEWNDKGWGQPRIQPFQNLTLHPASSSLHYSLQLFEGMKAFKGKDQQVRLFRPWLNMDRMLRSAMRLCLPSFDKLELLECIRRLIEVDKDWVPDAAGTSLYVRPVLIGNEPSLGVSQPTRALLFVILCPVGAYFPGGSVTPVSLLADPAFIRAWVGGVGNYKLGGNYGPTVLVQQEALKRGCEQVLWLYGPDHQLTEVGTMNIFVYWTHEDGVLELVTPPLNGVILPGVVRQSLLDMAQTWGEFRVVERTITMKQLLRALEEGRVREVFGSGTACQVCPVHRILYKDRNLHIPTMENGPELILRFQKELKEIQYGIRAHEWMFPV
Kind of test: BCAT2 in vitro enzyme inhibition assay (resazurin/diaphorase-coupled fluorescence). In kind it is biochemical. To be noted: average where tested multiple times. As for the experimental part:
BCAT2 In Vitro Enzyme Inhibition Assay
1.67× hBCAT2 Enzyme Mix: 0.33 μg/mL hBCAT2, 1× Buffer
2.5× Substrate Mix: 460 μM L-leucine, 420 μM α-KetoGlutarate, 10 U/mL glutamate dehydrogenase, 10 mM NAD, 30 μg/mL diaphorase, 20 μm Resazurin
BCAT2 enzyme stock solution was diluted to prepare a 1.67× hBCAT2 Enzyme Mix. 1 μL of test compound was first added to the reaction wells followed by 30 μL of 1.67× hBCAT2 Enzyme Mix and incubated at room temperature (25° C.) for one hour. Meanwhile the Substrate Mix was prepared. The reaction was initiated by the addition of 20 μL of the 2.5× Substrate Mix, bringing the final reaction mix of all components to 1×. Reactions were quenched after one hour by the addition of 25 μL of 6% SDS and reaction progress was measured via fluorescence read (Ex 540/Em 590).
Test Compound Preparation:
Test compounds were prepared at 50× final concentration in DMSO, 1 to 3 dilutions were made for 10 points. The compounds were added to the assay as a 1 to 50 dilution (1 μL in 50 μL) to yield a top assay final concentration of 100 μM, decreasing 3-fold for 10 points. Each compound dilution series test also included an assay max (1 μL DMSO Added in lieu of compound, Full Reaction Components Included) and Min (1 μL DMSO Added in lieu of compound, 30 μl of 1.67× hBCAT2 Enzyme Mix replated by 30 μL of 1× Buffer). All tests were performed in technical duplicate.
Where a compound was tested multiple times, the average value of the tests is reported.
A general note: Alamar Blue is a resazurin reagent that responds to reducing activity.

In test [2] the target is T1, BCAT2. Kind of test: BCAT2 in vitro cell inhibition using engineered A549 cells (KMV cell assay, 13C6-KMV by LC-MS/MS). In kind it is cell-based. On the set-up: The result was an engineered A549 cell line that expressed endogenous BCAT2; endogenous in cells; host or cells: A549 cells with MUT and BCAT1 knocked out by CRISPR/CAS9; key to BCAT2 Cell Inhibition: A: less than or equal to 0.100 μM; B: greater than 0.100 and less than or equal to 0.500 μM; C: greater than 0.500 and less than or equal to 1.000 μM; d: greater than 1.000 μM; E: no fit. To be noted: average where tested multiple times.

For orientation: IC50 means the point on the concentration scale where inhibition reaches its midpoint. As to `Cn1ccc(-c2nc3cnc(-n4ccnn4)cc3n2[C@@H]2CCC[C@H](NC(=O)c3ncc(C(F)F)s3)C2)n1` [Example 42, 5-(difluoromethyl)-N-((1S,3R)-3-(2-(1-methyl-1H-pyrazol-3-yl)-6-(1H-1,2,3-triazol-1-yl)-1H-imidazo[4,5-c]pyridin-1-yl)cyclohexyl)thiazole-2-carboxamide], the IC50 against BCAT2 [1] is > 1000 nM. The “BCAT2 Cell Inhibition” value at BCAT2 [2] was “E”. The like results for `CC(C)Cc1nc2cnc(-c3ccccc3CC#N)cc2n1[C@@H]1CCC[C@H](NC(=O)c2ncc(Cl)s2)C1` [Example 333, 5-chloro-N-((1S,3R)-3-(6-(2-(cyanomethyl)phenyl)-2-isobutyl-1H-imidazo[4,5-c]pyridin-1-yl)cyclohexyl)thiazole-2-carboxamide] were, in that order, > 1000 nM and “E”. For `CO[C@@H]1C[C@@H](NC(=O)c2ncc(Cl)s2)C[C@@H](n2c(CC(C)C)nc3cnc(-n4cncn4)cc32)C1` [Example 418, 5-chloro-N-((1S,3R,5R)-3-(2-isobutyl-6-(1H-1,2,4-triazol-1-yl)-1H-imidazo[4,5-c]pyridin-1-yl)-5-methoxycyclohexyl)thiazole-2-carboxamide], the IC50 against BCAT2 [1] was > 1000 nM. Moreover, the “BCAT2 Cell Inhibition” value on BCAT2 [2] was “E”. For `O=C(N[C@H]1CCC[C@@H](n2c(Oc3cc[nH]n3)nc3cnc(-c4nc[nH]n4)cc32)C1)c1ncc(Cl)s1` [Example 191, N-((1S,3R)-3-(2-((1H-pyrazol-3-yl)oxy)-6-(1H-1,2,4-triazol-3-yl)-1H-imidazo[4,5-c]pyridin-1-yl)cyclohexyl)-5-chlorothiazole-2-carboxamide], in that order: > 1000 nM and “E”. Consider `N#C[C@H]1[C@@H](NC(=O)c2ncc(Cl)s2)CCC[C@H]1n1c(-c2ccccc2F)nc2cnc(-c3nc[nH]n3)cc21` [Example 452, 5-chloro-N-((1S,2S,3R)-2-cyano-3-(2-(2-fluorophenyl)-6-(1H-1,2,4-triazol-3-yl)-1H-imidazo[4,5-c]pyridin-1-yl)cyclohexyl)thiazole-2-carboxamide], for which, on BCAT2 [1], the IC50 was > 1000 nM.

For the compound `[N-]=[N+]=N[C@H]1[C@@H](NC(=O)c2ncc(Cl)s2)CCC[C@H]1n1c(-c2ccccc2F)nc2cnc(-c3nc[nH]n3)cc21` [Example 450, N-((1S,2S,3R)-2-azido-3-(2-(2-fluorophenyl)-6-(1H-1,2,4-triazol-3-yl)-1H-imidazo[4,5-c]pyridin-1-yl)cyclohexyl)-5-chlorothiazole-2-carboxamide], at BCAT2 [1], the IC50 is > 1000 nM. Still for that read-out and setting: with `CC(C)Cc1nc2cnc(-n3nccn3)cc2n1[C@H]1CCC[C@@H](NC(=O)c2ncc(Cl)s2)[C@@H]1O` [Example 228, 5-chloro-N-((1R,2S,3S)-2-hydroxy-3-(2-isobutyl-6-(2H-1,2,3-triazol-2-yl)-1H-imidazo[4,5-c]pyridin-1-yl)cyclohexyl)thiazole-2-carboxamide] the figure was > 1000 nM; with `CC(C)Cc1nc2cnc(-c3ccn[nH]3)cc2n1[C@H]1CCC[C@@H](NC(=O)c2ncc(Cl)s2)[C@@H]1O` [Example 226, 5-chloro-N-((1R,2S,3S)-2-hydroxy-3-(2-isobutyl-6-(1H-pyrazol-5-yl)-1H-imidazo[4,5-c]pyridin-1-yl)cyclohexyl)thiazole-2-carboxamide], > 1000 nM. On the same count and under the same terms, under `O=C(N[C@H]1CCC[C@@H](n2c(C3CNCCO3)nc3cnc(-c4nc[nH]n4)cc32)C1)c1ncc(Cl)s1` (stereo partly drawn) [Example 174, 5-chloro-N-((1S,3R)-3-(2-(morpholin-2-yl)-6-(1H-1,2,4-triazol-3-yl)-1H-imidazo[4,5-c]pyridin-1-yl)cyclohexyl)thiazole-2-carboxamide] stands > 1000 nM; under `CO[C@H]1C[C@H](NC(=O)c2ncc(Cl)s2)C[C@H](n2c(CC(C)C)nc3cnc(-c4ccccn4)cc32)C1` (stereo in doubt) [Example 425, 5-chloro-N-((1R,3S,5S)-3-(2-isobutyl-6-(pyridin-2-yl)-1H-imidazo[4,5-c]pyridin-1-yl)-5-methoxycyclohexyl)thiazole-2-carboxamide], > 1000 nM.

For `CC(O)Cc1nc2cnc(-c3ccccn3)cc2n1[C@@H]1CCC[C@H](NC(=O)c2ncc(Cl)s2)C1` (stereo partly drawn) [Example 360, 5-chloro-N-((1S,3R)-3-(2-(2-hydroxypropyl)-6-(pyridin-2-yl)-1H-imidazo[4,5-c]pyridin-1-yl)cyclohexyl)thiazole-2-carboxamide], the IC50 against BCAT2 [1] is > 1000 nM. In turn, `CO[C@H]1C[C@H](NC(=O)c2ncc(Cl)s2)C[C@H](n2c(-c3ccccc3F)nc3cnc(-n4nccn4)cc32)C1` (stereo in doubt) [Example 423, 5-chloro-N-((1R,3S,5S)-3-(2-(2-fluorophenyl)-6-(2H-1,2,3-triazol-2-yl)-1H-imidazo[4,5-c]pyridin-1-yl)-5-methoxycyclohexyl)thiazole-2-carboxamide] displayed an IC50 against BCAT2 [1] of 500 to 1000 nM. The same measure, in the same setting: with `CC(=O)N1CC(NC(=O)c2ccc(Br)s2)CC(n2c(-c3ccccn3)nc3ccc(-c4nnco4)cc32)C1` (stereo not drawn) [Example 285, N-(5-(6-(1,3,4-oxadiazol-2-yl)-2-(pyridin-2-yl)-1H-benzo[d]imidazol-1-yl)-1-acetylpiperidin-3-yl)-5-bromothiophene-2-carboxamide] the figure was ≤ 100 nM; with `O=C(N[C@H]1C[C@@H](n2c(-c3ccccc3F)nc3cnc(-c4nc[nH]n4)cc32)CS(=O)(=O)C1)c1ccc(Cl)s1` [Example 457, 5-chloro-N-((3S,5R)-5-(2-(2-fluorophenyl)-6-(1H-1,2,4-triazol-3-yl)-1H-imidazo[4,5-c]pyridin-1-yl)-1,1-dioxidotetrahydro-2H-thiopyran-3-yl)thiophene-2-carboxamide], 100 to 500 nM. Take `CC(C)Cc1nc2cnc(-c3ccn(C(F)F)n3)cc2n1[C@H]1C[C@H](O)C[C@@H](NC(=O)c2ncc(Cl)s2)C1` (single isomer, unassigned) [Example 212]: the IC50 on BCAT2 [1] was > 1000 nM.

Turning to `CC(=O)N[C@H](c1nc2cnc(-c3nc[nH]n3)cc2n1[C@@H]1CCC[C@H](NC(=O)c2ncc(Cl)s2)C1)C(C)C` [Example 368, N-((1S,3R)-3-(2-((S)-1-acetamido-2-methylpropyl)-6-(1H-1,2,4-triazol-3-yl)-1H-imidazo[4,5-c]pyridin-1-yl)cyclohexyl)-5-chlorothiazole-2-carboxamide], the IC50 against BCAT2 [1] was > 1000 nM. Still for that read-out and setting: with `CC(=O)Cc1nc2cnc(-c3ccccn3)cc2n1[C@@H]1CCC[C@H](NC(=O)c2ncc(Cl)s2)C1` [Example 362, 5-chloro-N-((1S,3R)-3-(2-(2-oxopropyl)-6-(pyridin-2-yl)-1H-imidazo[4,5-c]pyridin-1-yl)cyclohexyl)thiazole-2-carboxamide] the figure was > 1000 nM; with `CC(C)Cc1nc2cnc(-c3ccn(C)n3)cc2n1[C@H]1CCC[C@@H](NC(=O)c2ncc(Cl)s2)[C@@H]1O` [Example 224, 5-chloro-N-((1R,2S,3S)-2-hydroxy-3-(2-isobutyl-6-(1-methyl-1H-pyrazol-3-yl)-1H-imidazo[4,5-c]pyridin-1-yl)cyclohexyl)thiazole-2-carboxamide], > 1000 nM. The same measure, in the same setting: with `CC(C)[C@@H](N)c1nc2cnc(-c3ccccn3)cc2n1[C@@H]1CCC[C@H](NC(=O)c2ncc(Cl)s2)C1` [Example 167, N-((1S,3R)-3-(2-((R)-1-amino-2-methylpropyl)-6-(pyridin-2-yl)-1H-imidazo[4,5-c]pyridin-1-yl)cyclohexyl)-5-chlorothiazole-2-carboxamide] the figure was 100 to 500 nM; with `[N-]=[N+]=N[C@@H]1[C@@H](NC(=O)c2ncc(Cl)s2)CCC[C@H]1n1c(-c2ccccc2F)nc2cnc(-c3nc[nH]n3)cc21` [Example 449, N-((1S,2R,3R)-2-azido-3-(2-(2-fluorophenyl)-6-(1H-1,2,4-triazol-3-yl)-1H-imidazo[4,5-c]pyridin-1-yl)cyclohexyl)-5-chlorothiazole-2-carboxamide], ≤ 100 nM.
